Reference: the NIST ThermoML archive (doi:10.1016/j.jct.2018.12.018)
Values joined by “and” are separate entries in the source; they are usually repeats but may differ in a detail not shown here. Equal entries are not always repeated.

Conditions: Liquid; for speed of sound: Frequency=3 MHz, Single path-length method; for mass density: Vibrating tube method

CC(C)O [propan-2-ol]
Conditions | mass density | speed of sound [m/s]
293.15 K, 100 kPa | 785.4 kg/m3 and 785.46 kg/m3 | 1157.5
293.15 K, 1000 kPa | 786.2 kg/m3 | –
293.15 K, 5000 kPa | 789.6 kg/m3 | –
293.15 K, 10000 kPa | 793.6 kg/m3 | –
293.15 K, 15000 kPa | 797.4 kg/m3 | –
293.15 K, 20000 kPa | 801.1 kg/m3 | –
293.15 K, 25000 kPa | 804.5 kg/m3 | –
293.15 K, 30000 kPa | 807.9 kg/m3 | –
293.15 K, 35000 kPa | 811.2 kg/m3 | –
293.15 K, 40000 kPa | 814.2 kg/m3 | –
293.15 K, 45000 kPa | 817.2 kg/m3 | –
293.15 K, 50000 kPa | 820.1 kg/m3 | –
293.15 K, 55000 kPa | 822.9 kg/m3 | –
293.15 K, 60000 kPa | 825.6 kg/m3 | –
293.15 K, 65000 kPa | 828.2 kg/m3 | –
293.15 K, 70000 kPa | 830.8 kg/m3 | –
293.15 K, 80000 kPa | 835.8 kg/m3 | –
293.15 K, 90000 kPa | 840.5 kg/m3 | –
293.15 K, 100000 kPa | 845 kg/m3 | –
293.15 K, 110000 kPa | 849.4 kg/m3 | –
293.15 K, 120000 kPa | 853.5 kg/m3 | –
293.15 K, 130000 kPa | 857.6 kg/m3 | –
293.15 K, 140000 kPa | 861.2 kg/m3 | –
298.15 K, 100 kPa | 781.27 kg/m3 and 781.4 kg/m3 | 1139.7
298.15 K, 1000 kPa | 782.1 kg/m3 | –
298.15 K, 5000 kPa | 785.6 kg/m3 | –
298.15 K, 10000 kPa | 789.8 kg/m3 | –
298.15 K, 15000 kPa | 793.7 kg/m3 | –
298.15 K, 20000 kPa | 797.3 kg/m3 | –
298.15 K, 25000 kPa | 800.9 kg/m3 | –
298.15 K, 30000 kPa | 804.3 kg/m3 | –
298.15 K, 35000 kPa | 807.7 kg/m3 | –
298.15 K, 40000 kPa | 810.8 kg/m3 | –
298.15 K, 45000 kPa | 813.8 kg/m3 | –
298.15 K, 50000 kPa | 816.7 kg/m3 | –
298.15 K, 55000 kPa | 819.7 kg/m3 | –
298.15 K, 60000 kPa | 822.5 kg/m3 | –
298.15 K, 65000 kPa | 825.2 kg/m3 | –
298.15 K, 70000 kPa | 827.6 kg/m3 | –
298.15 K, 80000 kPa | 832.8 kg/m3 | –
298.15 K, 90000 kPa | 837.5 kg/m3 | –
298.15 K, 100000 kPa | 842.3 kg/m3 | –
298.15 K, 110000 kPa | 846.4 kg/m3 | –
298.15 K, 120000 kPa | 850.8 kg/m3 | –
298.15 K, 130000 kPa | 854.8 kg/m3 | –
298.15 K, 140000 kPa | 858.7 kg/m3 | –
303.15 K, 100 kPa | 777 kg/m3 | 1122.6
313.15 K, 100 kPa | 768.21 kg/m3 and 768.2 kg/m3 | 1087.2
313.15 K, 1000 kPa | 769.1 kg/m3 | –
313.15 K, 5000 kPa | 773 kg/m3 | –
313.15 K, 10000 kPa | 777.4 kg/m3 | –
313.15 K, 15000 kPa | 781.8 kg/m3 | –
313.15 K, 20000 kPa | 785.7 kg/m3 | –
313.15 K, 25000 kPa | 789.5 kg/m3 | –
313.15 K, 30000 kPa | 793.3 kg/m3 | –
313.15 K, 35000 kPa | 796.9 kg/m3 | –
313.15 K, 40000 kPa | 800.1 kg/m3 | –
313.15 K, 45000 kPa | 803.4 kg/m3 | –
313.15 K, 50000 kPa | 806.5 kg/m3 | –
313.15 K, 55000 kPa | 809.6 kg/m3 | –
313.15 K, 60000 kPa | 812.5 kg/m3 | –
313.15 K, 65000 kPa | 815.4 kg/m3 | –
313.15 K, 70000 kPa | 818.2 kg/m3 | –
313.15 K, 80000 kPa | 823.4 kg/m3 | –
313.15 K, 90000 kPa | 828.5 kg/m3 | –
313.15 K, 100000 kPa | 833.1 kg/m3 | –
313.15 K, 110000 kPa | 837.8 kg/m3 | –
313.15 K, 120000 kPa | 842.1 kg/m3 | –
313.15 K, 130000 kPa | 846.4 kg/m3 | –
313.15 K, 140000 kPa | 850.4 kg/m3 | –
323.15 K, 100 kPa | 759.07 kg/m3 | 1051.8
333.15 K, 100 kPa | 749.42 kg/m3 and 749.4 kg/m3 | 1015.3
333.15 K, 1000 kPa | 750.5 kg/m3 | –
333.15 K, 5000 kPa | 754.9 kg/m3 | –
333.15 K, 10000 kPa | 760 kg/m3 | –
333.15 K, 15000 kPa | 764.9 kg/m3 | –
333.15 K, 20000 kPa | 769.3 kg/m3 | –
333.15 K, 25000 kPa | 773.6 kg/m3 | –
333.15 K, 30000 kPa | 777.7 kg/m3 | –
333.15 K, 35000 kPa | 781.5 kg/m3 | –
333.15 K, 40000 kPa | 785.3 kg/m3 | –
333.15 K, 45000 kPa | 788.9 kg/m3 | –
333.15 K, 50000 kPa | 792.3 kg/m3 | –
333.15 K, 55000 kPa | 795.6 kg/m3 | –
333.15 K, 60000 kPa | 798.7 kg/m3 | –
333.15 K, 65000 kPa | 801.8 kg/m3 | –
333.15 K, 70000 kPa | 804.8 kg/m3 | –
333.15 K, 80000 kPa | 810.5 kg/m3 | –
333.15 K, 90000 kPa | 815.9 kg/m3 | –
333.15 K, 100000 kPa | 820.9 kg/m3 | –
333.15 K, 110000 kPa | 825.8 kg/m3 | –
333.15 K, 120000 kPa | 830.4 kg/m3 | –
333.15 K, 130000 kPa | 834.8 kg/m3 | –
333.15 K, 140000 kPa | 839.2 kg/m3 | –
353.15 K, 1000 kPa | 729.8 kg/m3 | –
353.15 K, 5000 kPa | 735 kg/m3 | –
353.15 K, 10000 kPa | 741 kg/m3 | –
353.15 K, 15000 kPa | 746.5 kg/m3 | –
353.15 K, 20000 kPa | 751.7 kg/m3 | –
353.15 K, 25000 kPa | 756.5 kg/m3 | –
353.15 K, 30000 kPa | 761 kg/m3 | –
353.15 K, 35000 kPa | 765.4 kg/m3 | –
353.15 K, 40000 kPa | 769.3 kg/m3 | –
353.15 K, 45000 kPa | 773.3 kg/m3 | –
353.15 K, 50000 kPa | 777 kg/m3 | –
353.15 K, 55000 kPa | 780.6 kg/m3 | –
353.15 K, 60000 kPa | 784 kg/m3 | –
353.15 K, 65000 kPa | 787.4 kg/m3 | –
353.15 K, 70000 kPa | 790.6 kg/m3 | –
353.15 K, 80000 kPa | 796.7 kg/m3 | –
353.15 K, 90000 kPa | 802.6 kg/m3 | –
353.15 K, 100000 kPa | 808 kg/m3 | –
353.15 K, 110000 kPa | 813.2 kg/m3 | –
353.15 K, 120000 kPa | 818.1 kg/m3 | –
353.15 K, 130000 kPa | 822.8 kg/m3 | –
353.15 K, 140000 kPa | 827.3 kg/m3 | –
373.15 K, 1000 kPa | 706.6 kg/m3 | –
373.15 K, 5000 kPa | 712.8 kg/m3 | –
373.15 K, 10000 kPa | 719.9 kg/m3 | –
373.15 K, 15000 kPa | 726.3 kg/m3 | –
373.15 K, 20000 kPa | 732 kg/m3 | –
373.15 K, 25000 kPa | 737.7 kg/m3 | –
373.15 K, 30000 kPa | 742.9 kg/m3 | –
373.15 K, 35000 kPa | 747.8 kg/m3 | –
373.15 K, 40000 kPa | 752.2 kg/m3 | –
373.15 K, 45000 kPa | 756.6 kg/m3 | –
373.15 K, 50000 kPa | 760.7 kg/m3 | –
373.15 K, 55000 kPa | 764.7 kg/m3 | –
373.15 K, 60000 kPa | 768.6 kg/m3 | –
373.15 K, 65000 kPa | 772.1 kg/m3 | –
373.15 K, 70000 kPa | 775.6 kg/m3 | –
373.15 K, 80000 kPa | 782.3 kg/m3 | –
373.15 K, 90000 kPa | 788.5 kg/m3 | –
373.15 K, 100000 kPa | 794.4 kg/m3 | –
373.15 K, 110000 kPa | 799.9 kg/m3 | –
373.15 K, 120000 kPa | 805.3 kg/m3 | –
373.15 K, 130000 kPa | 810.2 kg/m3 | –
373.15 K, 140000 kPa | 815.1 kg/m3 | –
393.15 K, 1000 kPa | 680.4 kg/m3 | –
393.15 K, 5000 kPa | 688.2 kg/m3 | –
393.15 K, 10000 kPa | 696.7 kg/m3 | –
393.15 K, 15000 kPa | 704.4 kg/m3 | –
393.15 K, 20000 kPa | 711.4 kg/m3 | –
393.15 K, 25000 kPa | 717.6 kg/m3 | –
393.15 K, 30000 kPa | 723.5 kg/m3 | –
393.15 K, 35000 kPa | 729 kg/m3 | –
393.15 K, 40000 kPa | 734.2 kg/m3 | –
393.15 K, 45000 kPa | 739 kg/m3 | –
393.15 K, 50000 kPa | 743.5 kg/m3 | –
393.15 K, 55000 kPa | 747.9 kg/m3 | –
393.15 K, 60000 kPa | 752.1 kg/m3 | –
393.15 K, 65000 kPa | 756.1 kg/m3 | –
393.15 K, 70000 kPa | 760 kg/m3 | –
393.15 K, 80000 kPa | 767.2 kg/m3 | –
393.15 K, 90000 kPa | 773.9 kg/m3 | –
393.15 K, 100000 kPa | 780.2 kg/m3 | –
393.15 K, 110000 kPa | 786.2 kg/m3 | –
393.15 K, 120000 kPa | 791.8 kg/m3 | –
393.15 K, 130000 kPa | 797.2 kg/m3 | –
393.15 K, 140000 kPa | 802.3 kg/m3 | –
